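Cells were grown in 96-well plates and exposed to each compound for 48 hours at five concentrations; endpoints were interpolated linearly between bracketing concentrations, or set to the highest concentration if not reached. GI50 = concentration required for 50% inhibition of growth.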 The source made the active and inactive calls. No stated cut-off is given here; in the data, active = GI50 up to about 1.1 µM and inactive = higher.
Assays:
Assay in all cases: NCI tumour cell line growth inhibition, 48 h
[1] = test system: SK-MEL-2
[2] = test system: NCI-H23
[3] = test system: HCT-116
[4] = test system: RPMI-8226
[5] = test system: ACHN
[6] = test system: UO-31
[7] = test system: A549
[8] = test system: UACC-257
[9] = test system: K562
[10] = test system: CAKI-1
[11] = test system: HCT-15
[12] = test system: IGROV-1
[13] = test system: 786-0
[14] = test system: SNB-75
[15] = test system: HL-60

## COC(=O)C(=O)C(C(=O)C(=O)Nc1cc(C)ccc1C)c1nc2ccc(C(=O)c3ccccc3)cc2nc1O (stereo not given)
[1]
  GI50: > 100 µM (inactive)
[2]
  GI50: > 100 µM (inactive)
[3]
  GI50: > 100 µM (inactive)
[4]
  GI50: 94.2 µM (inactive)
[5]
  GI50: > 100 µM (inactive)
[6]
  GI50: 52.7 µM (inactive)
[7]
  GI50: > 100 µM (inactive)
[8]
  GI50: > 100 µM (inactive)
[9]
  GI50: 31 µM (inactive)
[10]
  GI50: 27.5 µM (inactive)
[11]
  GI50: > 100 µM
[12]
  GI50: > 100 µM (inactive)
[13]
  GI50: > 100 µM (inactive)

## CC(C)N1CCOC(c2ccc(O)c(O)c2)C1 (stereo not given)
[14]
  GI50: > 100 µM (inactive)
[1]
  GI50: > 100 µM (inactive)
[2]
  GI50: > 100 µM (inactive)
[4]
  GI50: > 100 µM (inactive)
[5]
  GI50: > 100 µM (inactive)
[6]
  GI50: > 100 µM (inactive)
[7]
  GI50: > 100 µM (inactive)
[8]
  GI50: > 100 µM (inactive)
[9]
  GI50: > 100 µM (inactive)
[10]
  GI50: > 100 µM (inactive)
[11]
  GI50: > 100 µM
[15]
  GI50: > 100 µM (inactive)
[12]
  GI50: > 100 µM (inactive)
[13]
  GI50: > 100 µM (inactive)

## NC(=S)N/N=C1/C(=O)N(c2ccc(Cl)cc2Cl)C(=O)C(=O)C1c1nc2ccccc2s1 (stereo not given)
[14]
  GI50: > 100 µM (inactive)
[1]
  GI50: > 100 µM (inactive)
[2]
  GI50: > 100 µM (inactive)
[3]
  GI50: > 100 µM (inactive)
[4]
  GI50: > 100 µM (inactive)
[5]
  GI50: > 100 µM (inactive)
[6]
  GI50: > 100 µM (inactive)
[8]
  GI50: > 100 µM (inactive)
[9]
  GI50: > 100 µM (inactive)
[10]
  GI50: > 100 µM (inactive)
[11]
  GI50: > 100 µM
[12]
  GI50: > 100 µM (inactive)
[13]
  GI50: > 100 µM (inactive)

## COC(=O)C(C(=O)Cc1ccccc1[N+](=O)[O-])C(=O)OC
[14]
  GI50: > 100 µM (inactive)
[1]
  GI50: > 100 µM (inactive)
[2]
  GI50: > 100 µM (inactive)
[3]
  GI50: > 100 µM (inactive)
[5]
  GI50: > 100 µM (inactive)
[6]
  GI50: > 100 µM (inactive)
[7]
  GI50: > 100 µM (inactive)
[8]
  GI50: > 100 µM (inactive)
[10]
  GI50: > 100 µM (inactive)
[11]
  GI50: > 100 µM
[15]
  GI50: 54.5 µM (inactive)
[12]
  GI50: > 100 µM (inactive)
[13]
  GI50: > 100 µM (inactive)

## Cc1c(N)c(C#N)c2n(C)c3ncccc3n2c1=O
[14]
  GI50: > 100 µM (inactive)
[1]
  GI50: > 100 µM (inactive)
[2]
  GI50: > 100 µM (inactive)
[3]
  GI50: > 100 µM (inactive)
[4]
  GI50: > 100 µM (inactive)
[5]
  GI50: > 100 µM (inactive)
[6]
  GI50: > 100 µM (inactive)
[7]
  GI50: > 100 µM (inactive)
[8]
  GI50: > 100 µM (inactive)
[9]
  GI50: > 100 µM (inactive)
[10]
  GI50: > 100 µM (inactive)
[11]
  GI50: > 100 µM
[15]
  GI50: > 100 µM (inactive)
[13]
  GI50: > 100 µM (inactive)

## CCOC(=O)C1(C(=O)OCC)C(C(C)(C)C)=C(C)c2ccccc21
[14]
  GI50: 19.3 µM (inactive)
[1]
  GI50: 18.5 µM (inactive)
[2]
  GI50: 10.2 µM (inactive)
[3]
  GI50: 6.75 µM (inactive)
[4]
  GI50: 7.89 µM (inactive)
[5]
  GI50: 13.2 µM (inactive)
[6]
  GI50: 15.4 µM (inactive)
[7]
  GI50: 18.1 µM (inactive)
[8]
  GI50: 12.2 µM (inactive)
[9]
  GI50: 8.55 µM (inactive)
[11]
  GI50: 13.7 µM
[15]
  GI50: 9.93 µM (inactive)
[12]
  GI50: 14.5 µM (inactive)
[13]
  GI50: 15.8 µM (inactive)

## NC(=S)N/N=C/C(=C/Nc1ccccc1)[N+](=O)[O-]
[14]
  GI50: > 100 µM (inactive)
[1]
  GI50: > 100 µM (inactive)
[2]
  GI50: > 100 µM (inactive)
[3]
  GI50: > 100 µM (inactive)
[4]
  GI50: > 100 µM (inactive)
[5]
  GI50: > 100 µM (inactive)
[7]
  GI50: > 100 µM (inactive)
[8]
  GI50: > 100 µM (inactive)
[9]
  GI50: > 100 µM (inactive)
[10]
  GI50: > 100 µM (inactive)
[11]
  GI50: > 100 µM
[15]
  GI50: > 100 µM (inactive)
[12]
  GI50: > 100 µM (inactive)
[13]
  GI50: > 100 µM (inactive)

## O=C1c2ccccc2C(=O)c2[nH]c(Cc3ccc(F)cc3)nc21
[14]
  GI50: 20.9 µM (inactive)
[1]
  GI50: 13.9 µM (inactive)
[2]
  GI50: > 10 µM (inactive)
[3]
  GI50: 19.5 µM (inactive)
[4]
  GI50: 22.8 µM (inactive)
[5]
  GI50: 14.2 µM (inactive)
[6]
  GI50: 29.6 µM (inactive)
[7]
  GI50: 19.5 µM (inactive)
[8]
  GI50: 16.3 µM (inactive)
[9]
  GI50: 37.2 µM (inactive)
[10]
  GI50: 19.7 µM (inactive)
[11]
  GI50: 6.44 µM
[15]
  GI50: 17.9 µM (inactive)
[12]
  GI50: 12.5 µM (inactive)
[13]
  GI50: 16.9 µM (inactive)

Source: ChEMBL document CHEMBL1201862, “PubChem BioAssay data set” (2004)
